Assay results from patent US20250179066A1, “ZWITTERIONIC ANTIBACTERIAL COMPOUNDS” (Hoffmann-La Roche Inc., priority 2022, published 2025).
Where a name gives a salt, the structure may show the parent alone.

System: Acinetobacter baumannii ATCC17961
Experiment: Antimicrobial susceptibility testing: 90% growth inhibitory concentration (IC90) determination
Type: cell-based
Details: 90% growth inhibitory concentration against Acinetobacter baumannii ATCC17961, Iso-Sensitest broth, OD 600 nm over 16 h; read-out: ATCC 17961 IC90
Method in brief: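 Twofold serial dilutions (e.g. 10 to 0.0195 μM final) in Iso-Sensitest broth inoculated at ~5×10^5 CFU/mL, incubated at 35±2° C. OD600 read every minute for 16 h; IC90 is the concentration inhibiting 90% of growth during logarithmic phase.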

SMILES | IC90 [nM]
Cn1c(-c2cn(-c3cc4ccccc4s3)nc2C(F)(F)F)cnc1C(=O)Nc1ccc(C(=O)N2CCN(C(=O)C3CC[N+](CC(=O)O)(CC4CNC4)CC3)CC2)c(Cl)c1 (stereo not shown) [Example 95, 2-[1-(Azetidin-3-ylmethyl)-4-[4-[4-[[5-[1-(benzothiophen-2-yl)-3-(trifluoromethyl)pyrazol-4-yl]-1-methyl-imidazole-2-carbonyl]amino]-2-chloro-benzoyl]piperazine-1-carbonyl]piperidin-1-ium-1-yl]Acetic Acid; Formic Acid; Formate] | 1760

Same assay, conditions: Acinetobacter baumannii, ATCC17961, 16 h, 90% growth inhibitory concentration against Acinetobacter baumannii ATCC17961, Iso-Sensitest broth, OD 600 nm over 16 h; read-out: ATCC 17961 IC90

IC90 [nM] | SMILES
195 | Cn1c(-c2cn(-c3ccc(N4CCOCC4)cc3F)nc2C(F)(F)F)cnc1C(=O)Nc1ccc(C(=O)N2CCN(C(=O)[C@H]3CC[N@@+](CCCN)(CC(=O)O)CC3)CC2)c(Cl)c1 [Example 100, cis-2-[1-(3-aminopropyl)-4-[4-[2-chloro-4-[[5-[1-(2-fluoro-4-morpholino-phenyl)-3-(trifluoromethyl)pyrazol-4-yl]-1-methyl-imidazole-2-carbonyl]amino]benzoyl]piperazine-1-carbonyl]piperidin-1-ium-1-yl]acetic acid;formate]
338 | Cc1cc(NC(=O)c2ncc(-c3cn(-c4ccc5[nH]c([C@H](C)O)cc5n4)nc3C(F)(F)F)n2C)ccc1C(=O)N1CCN(C(=O)[C@H]2CC[N@@+](CCCN)(CC(=O)O)CC2)CC1 [Example 101, cis-2-[1-(3-aminopropyl)-4-[4-[4-[[5-[1-[2-[(1S)-1-hydroxyethyl]-1H-pyrrolo[3,2-b]pyridin-5-yl]-3-(trifluoromethyl)pyrazol-4-yl]-1-methyl-imidazole-2-carbonyl]amino]-2-methyl-benzoyl]piperazine-1-carbonyl]piperidin-1-ium-1-yl]acetic acid;chloride]
175 | CNc1ccc(-n2cc(-c3cnc(C(=O)Nc4ccc(C(=O)N5CCN(C(=O)[C@H]6CC[N@+](CC(=O)O)(CC7CNC7)CC6)CC5)c(C)c4)n3C)c(C(F)(F)F)n2)c(F)c1 [Example 107, cis-2-[1-(azetidin-3-ylmethyl)-4-[4-[4-[[5-[1-[2-fluoro-4-(methylamino)phenyl]-3-(trifluoromethyl)pyrazol-4-yl]-1-methyl-imidazole-2-carbonyl]amino]-2-methyl-benzoyl]piperazine-1-carbonyl]piperidin-1-ium-1-yl]acetic acid;2,2,2-trifluoroacetate]
58.7 | CNc1ccc(-n2cc(-c3cnc(C(=O)Nc4ccc(C(=O)N5CCN(C(=O)[C@H]6CC[N@+](CC(=O)O)(CC7CNC7)CC6)CC5)c(F)c4)n3C)c(C(F)(F)F)n2)c(F)c1 [Example 108, cis-2-[1-(azetidin-3-ylmethyl)-4-[4-[2-fluoro-4-[[5-[1-[2-fluoro-4-(methylamino)phenyl]-3-(trifluoromethyl)pyrazol-4-yl]-1-methyl-imidazole-2-carbonyl]amino]benzoyl]piperazine-1-carbonyl]piperidin-1-ium-1-yl]acetic acid; 2,2,2-trifluoroacetate]
207 | Cc1cc(NC(=O)c2ncc(-c3cn(-c4ccc(O)cc4F)nc3C(F)(F)F)n2C)ccc1C(=O)N1CCN(C(=O)[C@H]2CC[N@@+](CCCN)(CC(=O)O)CC2)CC1 [Example 110, cis-2-[1-(3-aminopropyl)-4-[4-[4-[[5-[1-(2-fluoro-4-hydroxy-phenyl)-3-(trifluoromethyl)pyrazol-4-yl]-1-methyl-imidazole-2-carbonyl]amino]-2-methyl-benzoyl]piperazine-1-carbonyl]piperidin-1-ium-1-yl]acetic acid. 1:1 2,2,2-trifluoroacetate]

The remaining lines, values behind:

SMILES | IC90 [nM]
Cn1c(-c2cn(-c3ccc(N)cn3)nc2C(F)(F)F)cnc1C(=O)Nc1ccc(C(=O)N2CCC(C(=O)NCCCc3cc[n+](CC(=O)O)c(CCCN)c3)CC2)c(Cl)c1 [Example 96, 2-[2-(3-aminopropyl)-4-[3-[[1-[4-[[5-[1-(5-amino-2-pyridyl)-3-(trifluoromethyl)pyrazol-4-yl]-1-methyl-imidazole-2-carbonyl]amino]-2-chloro-benzoyl]piperidine-4-carbonyl]amino]propyl]pyridin-1-ium-1-yl]acetic acid. 1:1 2,2,2-trifluoroacetic acid. 1:1 2,2,2-trifluoroacetate] | 1820
COCC1CN(C(=O)c2ccc(NC(=O)c3ncc(-c4cn(-c5ccc(N)cn5)nc4C(F)(F)F)n3C)cc2Cl)CCN1C(=O)C1CC[N+](CC(=O)O)(CC2CNC2)CC1 (stereo not shown) [Example 97, 2-[4-[4-[4-[[5-[1-(5-amino-2-pyridyl)-3-(trifluoromethyl)pyrazol-4-yl]-1-methyl-imidazole-2-carbonyl]amino]-2-chloro-benzoyl]-2-(methoxymethyl)piperazine-1-carbonyl]-1-(azetidin-3-ylmethyl)piperidin-1-ium-1-yl]acetic acid. 1:1 formate] | 1840
Cn1c(-c2cn(-c3ccc4[nH]c(CCCO)cc4n3)nc2C(F)(F)F)cnc1C(=O)Nc1ccc(C(=O)N2CCN(C(=O)C3CC[N+](CCCN)(CC(=O)O)CC3)CC2)c(Cl)c1 (stereo not drawn) [Example 98, cis-2-[1-(3-aminopropyl)-4-[4-[2-chloro-4-[[5-[1-[2-(3-hydroxypropyl)-1H-pyrrolo[3,2-b]pyridin-5-yl]-3-(trifluoromethyl)pyrazol-4-yl]-1-methyl-imidazole-2-carbonyl]amino]benzoyl]piperazine-1-carbonyl]piperidin-1-ium-1-yl]acetic acid;chloride] | 387
Cn1c(-c2cn(-c3ccc4[nH]c(CCC(N)=O)cc4n3)nc2C(F)(F)F)cnc1C(=O)Nc1ccc(C(=O)N2CCN(C(=O)[C@H]3CC[N@@+](CCCN)(CC(=O)O)CC3)CC2)c(Cl)c1 [Example 99, cis-2-[4-[4-[4-[[5-[1-[2-(3-amino-3-oxo-propyl)-1H-pyrrolo[3,2-b]pyridin-5-yl]-3-(trifluoromethyl)pyrazol-4-yl]-1-methyl-imidazole-2-carbonyl]amino]-2-chloro-benzoyl]piperazine-1-carbonyl]-1-(3-aminopropyl)piperidin-1-ium-1-yl]acetic acid;2,2,2-trifluoroacetate] | 361
Cn1c(-c2cn(-c3ccc4[nH]c(C(CO)CO)cc4n3)nc2C(F)(F)F)cnc1C(=O)Nc1ccc(C(=O)N2CCN(C(=O)[C@H]3CC[N@@+](CCCN)(CC(=O)O)CC3)CC2)c(Cl)c1 [Example 102, cis-2-[1-(3-aminopropyl)-4-[4-[2-chloro-4-[[5-[1-[2-[2-hydroxy-1-(hydroxymethyl)ethyl]-1H-pyrrolo[3,2-b]pyridin-5-yl]-3-(trifluoromethyl)pyrazol-4-yl]-1-methyl-imidazole-2-carbonyl]amino]benzoyl]piperazine-1-carbonyl]piperidin-1-ium-1-yl]acetic acid;formate] | 445
Cn1c(-c2cn(-c3ccc4c(cc(C(=O)N5CCOCC5)n4C)n3)nc2C(F)(F)F)cnc1C(=O)Nc1ccc(C(=O)N2CCN(C(=O)[C@H]3CC[N@@+](CCCN)(CC(=O)O)CC3)CC2)c(Cl)c1 [Example 103, cis-2-[1-(3-aminopropyl)-4-[4-[2-chloro-4-[[1-methyl-5-[1-[1-methyl-2-(morpholine-4-carbonyl)pyrrolo[3,2-b]pyridin-5-yl]-3-(trifluoromethyl)pyrazol-4-yl]imidazole-2-carbonyl]amino]benzoyl]piperazine-1-carbonyl]piperidin-1-ium-1-yl]acetic acid;formate] | 604
Cn1c(-c2cn(-c3ccc4c(cc(C(=O)NCCO)n4C)n3)nc2C(F)(F)F)cnc1C(=O)Nc1ccc(C(=O)N2CCN(C(=O)[C@H]3CC[N@@+](CCCN)(CC(=O)O)CC3)CC2)c(Cl)c1 [Example 104, cis-2-[1-(3-aminopropyl)-4-[4-[2-chloro-4-[[5-[1-[2-(2-hydroxyethylcarbamoyl)-1-methyl-pyrrolo[3,2-b]pyridin-5-yl]-3-(trifluoromethyl)pyrazol-4-yl]-1-methyl-imidazole-2-carbonyl]amino]benzoyl]piperazine-1-carbonyl]piperidin-1-ium-1-yl]acetic acid;chloride] | 783
Cn1c(-c2cn(-c3ccc4[nH]c([C@H](O)CO)cc4n3)nc2C(F)(F)F)cnc1C(=O)Nc1ccc(C(=O)N2CCN(C(=O)[C@H]3CC[N@+](CC(=O)O)(CC4CNC4)CC3)CC2)c(Cl)c1 [Example 105, cis-2-[1-(azetidin-3-ylmethyl)-4-[4-[2-chloro-4-[[5-[1-[2-[(1S)-1,2-dihydroxyethyl]-1H-pyrrolo[3,2-b]pyridin-5-yl]-3-(trifluoromethyl)pyrazol-4-yl]-1-methyl-imidazole-2-carbonyl]amino]benzoyl]piperazine-1-carbonyl]piperidin-1-ium-1-yl]acetic acid;2,2,2-trifluoroacetate] | 525
Cn1c(-c2cn(-c3ccc4[nH]c([C@@H](O)CO)cc4n3)nc2C(F)(F)F)cnc1C(=O)Nc1ccc(C(=O)N2CCN(C(=O)[C@H]3CC[N@+](CC(=O)O)(CC4CNC4)CC3)CC2)c(Cl)c1 [Example 106, cis-2-[1-(azetidin-3-ylmethyl)-4-[4-[2-chloro-4-[[5-[1-[2-[(1R)-1,2-dihydroxyethyl]-1H-pyrrolo[3,2-b]pyridin-5-yl]-3-(trifluoromethyl)pyrazol-4-yl]-1-methyl-imidazole-2-carbonyl]amino]benzoyl]piperazine-1-carbonyl]piperidin-1-ium-1-yl]acetic acid;chloride] | 611
CN(C)c1ccc(-n2cc(-c3cnc(C(=O)Nc4ccc(C(=O)N5CCN(C(=O)[C@H]6CC[N@+](CC(=O)O)(CC7CNC7)CC6)CC5)c(F)c4)n3C)c(C(F)(F)F)n2)c(F)c1 [Example 109, cis-2-[1-(azetidin-3-ylmethyl)-4-[4-[4-[[5-[1-[4-(dimethylamino)-2-fluoro-phenyl]-3-(trifluoromethyl)pyrazol-4-yl]-1-methyl-imidazole-2-carbonyl]amino]-2-fluoro-benzoyl]piperazine-1-carbonyl]piperidin-1-ium-1-yl]acetic acid; 2,2,2-trifluoroacetate] | 213
